Reference: patent US11452682B2, “Toothpaste composition for alleviating dentin hyperesthesia” (HYSENSBIO, priority 2018, dated 2022)

system: DSPP gene; assay: mRNA level of DSPP gene in MDPC-23 cells by RT-PCR and real-time PCR; type: cell-based, mouse; conditions: cultured 48 hours with peptide, relative ratio to mRNA level in untreated control, Gapdh internal control, repeated three times
Method: The MDPC-23 cells cultured in Example 2-1 were treated with the peptides of each group synthesized in Example 1, then cultured for 48 hours. The mRNA level of the DSPP, an odontoblast differentiation marker gene, expressed in the MDPC-23 cells were measured, and the measured mRNA level of each DSPP gene was converted into a relative ratio to the mRNA level of the DSPP gene measured in control (Tables 13 to 24). In addition, the average value of the mRNA level of the DSPP gene measured according to the peptides of each group was compared (FIG. 1B). At this time, as a control, MDPC-23 cells that were not treated with the peptide promoting differentiation of odontoblast were used.
The expression level of the DSPP gene was measured through RT-PCR and real-time PCR analysis: Specifically, total RNA was extracted from the MDPC-23 cells using TRIzol reagent. 2 μg of the total RNA, 1 μl of reverse transcriptase, and 0.5 μg of oligo (oligo; dT) were used to synthesize cDNA. The synthesized cDNA was used in a real-time polymerase chain reaction. The real-time polymerase chain reaction was performed on an ABI PRISM 7500 sequence detection system (Applied Biosystems) and an SYBR GREEN PCR Master Mix (Takara, Japan). The real-time polymerase chain reaction was performed under conditions of 94° C., 1 min; 95° C., 15 sec; 60° C., 34 sec for 40 cycles. Results were analyzed by a comparative cycle threshold (CT) method. At this time, the Gapdh gene was used as the internal control group, and the measured value was repeated three times. The mean value and standard deviation value thereof were used.

Substance	mRNA level of Dspp gene Mean
1 (KYQRRKKNKY; Novel peptide) [compound 1]	1.754
2 (KYQRRKRNKY; Novel peptide) [compound 2]	1.646
4 (KYQRRRRNKY; Novel peptide) [compound 4]	1.855
5 (KYQRKKKNKY; Novel peptide) [compound 5]	1.639
6 (KYQRKRKNKY; Novel peptide) [compound 6]	1.746
7 (KYQRKKRNKY; Novel peptide) [compound 7]	1.864
8 (KYQRKRRNKY; Novel peptide) [compound 8]	1.639
9 (KYQRRKKSKY; Novel peptide) [compound 9]	1.854
10 (KYQRRKRSKY; Novel peptide) [compound 10]	1.746
11 (KYQRRRKSKY; Novel peptide) [compound 11]	1.639
12 (KYQRRRRSKY; Novel peptide) [compound 12]	1.548
13 (KYQRKKKSKY; Novel peptide) [compound 13]	1.685
14 (KYQRKRKSKY; Novel peptide) [compound 14]	1.846
15 (KYQRKKRSKY; Novel peptide) [compound 15]	1.964
16 (KYQRKRRSKY; Novel peptide) [compound 16]	1.739
17 (KYQRRKKNYK; Novel peptide) [compound 17]	2.117
18 (KYQRRKRNYK; Novel peptide) [compound 18]	2.319
19 (KYQRRRKNYK; Novel peptide) [compound 19]	1.931
20 (KYQRRRRNYK; Novel peptide) [compound 20]	2.553
21 (KYQRKKKNYK; Novel peptide) [compound 21]	1.893
22 (KYQRKRKNYK; Novel peptide) [compound 22]	2.412

Substance	mRNA level of Dspp gene Mean
23 (KYQRKKRNYK; Novel peptide) [compound 23]	2.171
24 (KYQRKRRNYK; Novel peptide) [compound 24]	2.212
25 (KYQRRKKSYK; Novel peptide) [compound 25]	2.371
26 (KYQRRKRSYK; Novel peptide) [compound 26]	2.193
27 (KYQRRRKSYK; Novel peptide) [compound 27]	1.993
28 (KYQRRRRSYK; Novel peptide) [compound 28]	2.453
29 (KYQRKKKSYK; Novel peptide) [compound 29]	1.883
30 (KYQRKRKSYK; Novel peptide) [compound 30]	2.512
31 (KYQRKKRSYK; Novel peptide) [compound 31]	2.371
32 (KYQRKRRSYK; Novel peptide) [compound 32]	2.219
33 (KYRQRKKNKY; Novel peptide) [compound 33]	1.712
34 (KYRQRKRNKY; Novel peptide) [compound 34]	1.931
35 (KYRQRRKNKY; Novel peptide) [compound 35]	1.983
36 (KYRQRRRNKY; Novel peptide) [compound 36]	2.319
37 (KYRQKKKNKY; Novel peptide) [compound 37]	1.597
38 (KYRQKRKNKY; Novel peptide) [compound 38]	2.116
39 (KYRQKKRNKY; Novel peptide) [compound 39]	1.712
40 (KYRQKRRNKY; Novel peptide) [compound 40]	2.219
41 (KYRQRKKSKY; Novel peptide) [compound 41]	1.546
42 (KYRQRKRSKY; Novel peptide) [compound 42]	1.586
43 (KYRQRRKSKY; Novel peptide) [compound 43]	1.669

Substance	mRNA level of Dspp gene Mean
44 (KYRQRRRSKY; Novel peptide) [compound 44]	1.793
45 (KYRQKKKSKY; Novel peptide) [compound 45]	1.532
46 (KYRQKRKSKY; Novel peptide) [compound 46]	1.887
47 (KYRQKKRSKY; Novel peptide) [compound 47]	1.697
48 (KYRQKRRSKY; Novel peptide) [compound 48]	1.558
49 (KYRQRKKNYK; Novel peptide) [compound 49]	1.923
50 (KYRQRKRNYK; Novel peptide) [compound 50]	1.887
51 (KYRQRRKNYK; Novel peptide) [compound 51]	1.601
52 (KYRQRRRNYK; Novel peptide) [compound 52]	2.019
53 (KYRQKKKNYK; Novel peptide) [compound 53]	1.592
54 (KYRQKRKNYK; Novel peptide) [compound 54]	1.437
55 (KYRQKKRNYK; Novel peptide) [compound 55]	1.663
56 (KYRQKRRNYK; Novel peptide) [compound 56]	1.701
57 (KYRQRKKSYK; Novel peptide) [compound 57]	2.039
58 (KYRQRKRSYK; Novel peptide) [compound 58]	1.998
59 (KYRQRRKSYK; Novel peptide) [compound 59]	1.792
60 (KYRQRRRSYK; Novel peptide) [compound 60]	2.107
61 (KYRQKKKSYK; Novel peptide) [compound 61]	2.301
62 (KYRQKRKSYK; Novel peptide) [compound 62]	1.672
63 (KYRQKKRSYK; Novel peptide) [compound 63]	1.769
64 (KYRQKRRSYK; Novel peptide) [compound 64]	1.967
